According to patent US12251366B1, “Sulforaphane-cysteine for wound healing in diabetic subjects” (KUWAIT UNIVERSITY, priority 2024, dated 2025):

Columns and labels:
[1] = test system: IL-6; assay: Real-time PCR, LPS-induced IL-6 mRNA in peritoneal macrophages; type: cell-based, mouse; conditions: LPS 100 ng/mL, 1.5 umol/L, RT-PCR
Description: Additional tests were conducted to determine whether SFN-Cys also suppresses TNF-α and IL-6 expression at the mRNA level.
Thioglycollate-elicited mouse peritoneal macrophages were prepared from C57BL (8-10 weeks old) and cultured in RPMI 1640 with 10% (v/v) FCS Bone marrow-derived macrophages were generated in RPMI medium containing M-CSF (10 ng/mL) according to previously published procedure. For cytokine ELISA assay, cells were seeded at 5×10^5 in 12-well plates, whereas for mRNA expression, the cells were seeded at […]. LPS and used at a dose of 100 ng/mL. Similarly. SFN-Cys was used at a concentration of 1.5 umol/L.
Total RNA from cells or frozen sponge implants was extracted using the Trizol reagent (Invitrogen), and the RNA integrity was verified by agarose gel electrophoresis. Approximately 1 μg of RNA was reverse transcribed (Superscript II Reverse Transcriptase Kit, Invitrogen) and amplified using the TaqMan Assay on Demand (Applied Biosystems) in a 25 μL reaction volume containing two unlabeled primers, a 6-carboxyfluorescien-labeled TaqMan MGB probe and the master mix. The amplified sequences were assessed using the ABI 7500 Prism Sequence Detection system machine. The results were expressed as mRNA levels normalized to 18S or GAPDH in each sample.

[2] = test system: wound fibroblasts (DF, CF-GP); assay: Cell viability assay, H2O2 cytotoxicity in wound fibroblasts; type: cell-based, rat; conditions: 1.5 to 5 μM
Description: To determine if SFN-Cys is involved in cellular detoxification of oxidant load, wound fibroblasts derived from the granulation tissue of control and diabetic animals with H2O2 were measured for their abilities to survive acute oxidative stress in the presence or absence of SFN-Cys. […] Moreover, CF exposed for 72 hours to high glucose (25 mmole/L and palmitate 200 μmole/L, CF-GP) to mimic the diabetic state produced analogous results to those seen with DF as illustrated in FIG. 2A. Supplementing DF and CF-GP with SFN-Cys at a dose of 1.5 to 5 μM eliminated the reactive oxygen species difference between these cells and enhanced DF and CF-GP resistance to H2O2(FIG. 2A).
Control and diabetic fibroblasts were isolated from wounds inflicted on control Wistar rats (CF) or Goto kakazaki rats (GK), a model of non-obese type 2 diabetes. All information regarding the GK rats and the preparation and culturing of control (CF) and diabetic (DF) fibroblasts was described in detailed in previous publications, Bitar, M S, and Mulla, F. Am J Phyaiol. […]
The response of CF and DF to H2O2 cytotoxicity was measured by seeding the cells into 96-well plates at a density of 5×10^3 to 8×10^3 cells per well and were allowed to adhere overnight in 10% FCS-DMEM medium. […] Cell viability was measured using WST-1 (Dojindo, USA;) according to the manufacturer's instructions.

[3] = test system: fibroblasts (CF, DF); assay: Proliferation of fibroblasts from control and diabetic wounds; type: cell-based, rat; conditions: 1.5 μM
Description: Successful wound healing necessitates a series of tightly coordinated and overlapping processes including inflammation, new tissue formation and remodeling. Fibroblasts, in response to growth factors-released mostly by macrophages, migrate to the site of injury, where they proliferate and lay down the extracellular matrix (ECM). Consequently, this facilitates cell migration and tissue reconstruction. The effect of a therapeutic concentration of SFN-Cys (1.5 μM) was investigated on the proliferation of fibroblasts isolated from the granulation tissue of control and diabetic wounds. Similarly, the effect of SFN-Cys on cell migration in the in vitro wound closure assay was also considered. […] Accordingly, in vivo wound closure properties of SFN-Cys were examined using an excisional wound healing rat model. SFN-Cys containing Pluronic acid was topically applied to the wound at a dose of 1.5 μmol concentration and the wound closure area was digitally photographed and quantified. Digital photographs were obtained on day-0 through day-7 of post wounding. […] In this context, the wound healing time-course was faster in SFN-Cys containing Pluronic acid than the Pluronic acid alone (FIG. 3C). […] VEGF is a well-established enhancer of the proliferative phase of healing. […]

## C[S+]([O-])CCCCNC(=S)SCC(N)C(=O)O (stereo not shown) [SFN-Cys, Sulforaphane-Cysteine]
[1]
  LPS-induced IL-6 mRNA up-regulation: significantly inhibited
[2]
  reactive oxygen species difference between DF/CF-GP and control fibroblasts: eliminated
[2]; DF and CF-GP, H2O2 400 μmol/L 4 hours, WST-1
  resistance to H2O2 (cell viability): enhanced
[3]
  cell proliferation: enhanced cell proliferation in both CF and DF
